The record followed here is patent US11325889B2, “Substituted 3-((3-aminophenyl)amino)piperidine-2,6-dione compounds, compositions thereof, and methods of treatment therewith” (Celgene Corporation, priority 2018, dated 2022).

Where two headings read alike, the source gives them in different places.

For this experiment, the target named is T1, AR protein in VCaP cells (Homo sapiens, UniProt P10275).
T1 construct: endogenous in cells; host or cells: VCaP cells
T1 sequence (P10275 1-920): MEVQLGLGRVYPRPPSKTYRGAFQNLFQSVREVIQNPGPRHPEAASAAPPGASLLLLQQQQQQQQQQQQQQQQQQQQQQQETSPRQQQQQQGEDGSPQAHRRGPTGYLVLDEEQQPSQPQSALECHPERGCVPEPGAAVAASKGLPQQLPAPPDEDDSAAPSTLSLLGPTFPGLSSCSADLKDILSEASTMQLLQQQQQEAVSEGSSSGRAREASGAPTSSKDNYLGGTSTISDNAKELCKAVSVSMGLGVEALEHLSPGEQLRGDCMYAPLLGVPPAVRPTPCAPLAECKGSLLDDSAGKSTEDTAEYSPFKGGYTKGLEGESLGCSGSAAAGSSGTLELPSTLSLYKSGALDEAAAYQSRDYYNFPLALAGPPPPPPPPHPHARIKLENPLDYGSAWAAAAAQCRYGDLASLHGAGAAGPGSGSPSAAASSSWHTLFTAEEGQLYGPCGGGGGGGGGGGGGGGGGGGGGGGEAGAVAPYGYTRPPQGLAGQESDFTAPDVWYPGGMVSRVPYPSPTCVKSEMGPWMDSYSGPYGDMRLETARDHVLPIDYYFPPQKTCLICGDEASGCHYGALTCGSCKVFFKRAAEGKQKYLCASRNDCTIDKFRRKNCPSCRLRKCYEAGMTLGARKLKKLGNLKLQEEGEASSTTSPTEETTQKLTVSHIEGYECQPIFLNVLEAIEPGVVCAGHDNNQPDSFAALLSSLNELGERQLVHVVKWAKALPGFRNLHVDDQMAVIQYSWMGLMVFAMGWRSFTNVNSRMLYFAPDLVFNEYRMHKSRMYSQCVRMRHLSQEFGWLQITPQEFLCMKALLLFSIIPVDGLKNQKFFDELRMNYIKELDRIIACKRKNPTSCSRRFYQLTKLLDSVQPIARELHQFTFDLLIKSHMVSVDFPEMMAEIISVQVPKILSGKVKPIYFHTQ
Put plainly: VCAP AR Degradation Assay (AR ELISA, 24 h). The class given is cell-based. As to conditions: for Y (lowest measured AR level normalized to DMSO control): AR degradation efficiency; for DC50: concentration of compound when AR level = 50% of DMSO control. A digest of the protocol:
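VCaP cells in DMEM with 8% FBS exposed for 24 h at 37° C to a 10-point, 1:3 series (final top concentration […]; 0.1% DMSO control). Lysate AR measured by sandwich ELISA and normalized to DMSO as percent of control. DC50, EC50 and lowest AR level (Y) from four-parameter logistic fit.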

As for `CCc1cc(N2C(=S)N(c3cnc(C#N)c(C(F)(F)F)c3)C(=O)C2(C)C)ccc1OC1CCN(CC(=O)Nc2cc(Cl)cc(NC3CCC(=O)NC3=O)c2)CC1` (stereo not shown) [Cmpd 51, N-(3-chloro-5-(2,6-dioxopiperidin-3-ylamino)phenyl)-2-(4-(4-(3-(6-cyano-5-(trifluoromethyl)pyridin-3-yl)-5,5-dimethyl-4-oxo-2-thioxoimidazolidin-1-yl)-2-ethylphenoxy)piperidin-1-yl)acetamide], the “Y (lowest measured AR level normalized to DMSO control)” value is recorded as “* (0<Y<=25%)”. Also, the 50% degradation concentration (DC50) (read-out: DC50) was less than 100 nM.

For `CCc1cc(N2C(=S)N(c3cnc(C#N)c(C(F)(F)F)c3)C(=O)C2(C)C)ccc1OC1CCN(CC(=O)Nc2cc(NC3CCC(=O)NC3=O)ccc2F)CC1` (stereo not shown) [Cmpd 52, 2-(4-(4-(3-(6-cyano-5-(trifluoromethyl)pyridin-3-yl)-5,5-dimethyl-4-oxo-2-thioxoimidazolidin-1-yl)-2-ethylphenoxy)piperidin-1-yl)-N-(5-(2,6-dioxopiperidin-3-ylamino)-2-fluorophenyl)acetamide], the “Y (lowest measured AR level normalized to DMSO control)” value is listed as “*** (35%<Y<50%)”. For the same molecule, the DC50 (read-out: DC50) lay in the range of 100 to 500 nM.

Regarding `CCc1cc(N2C(=S)N(c3cnc(C#N)c(C(F)(F)F)c3)C(=O)C2(C)C)ccc1OC1CCN(CC(=O)Nc2cccc(NC3CCC(=O)NC3=O)c2)CC1` (stereo not shown) [Cmpd 53, 2-(4-(4-(3-(6-cyano-5-(trifluoromethyl)pyridin-3-yl)-5,5-dimethyl-4-oxo-2-thioxoimidazolidin-1-yl)-2-ethylphenoxy)piperidin-1-yl)-N-(3-(2,6-dioxopiperidin-3-ylamino)phenyl)acetamide], the “Y (lowest measured AR level normalized to DMSO control)” value was “** (25%<Y<=35%)”. Also, under “read-out: DC50”, the DC50 was less than 100 nM.

Take `CCc1cc(N2C(=S)N(c3cnc(C#N)c(C(F)(F)F)c3)C(=O)C23CCC3)ccc1OCC[C@H]1CCN(CC(=O)Nc2cccc(NC3CCC(=O)NC3=O)c2)C(C)(C)C1` (stereo partly drawn) [Cmpd 55, 2-((S)-4-(2-(4-(7-(6-cyano-5-(trifluoromethyl)pyridin-3-yl)-8-oxo-6-thioxo-5,7-diazaspiro[3.4]octan-5-yl)-2-ethylphenoxy)ethyl)-2,2-dimethylpiperidin-1-yl)-N-(3-(2,6-dioxopiperidin-3-ylamino)phenyl)acetamide]: the “Y (lowest measured AR level normalized to DMSO control)” value is reported as “* (0<Y<=25%)”. Besides, the DC50 (read-out: DC50) was 100 to 500 nM.

`CCc1cc(N2C(=S)N(c3cnc(C#N)c(C(F)(F)F)c3)C(=O)C23CCC3)ccc1OCCC1CCN(CC(=O)Nc2cc(NC3CCC(=O)NC3=O)ccc2F)CC1` (stereo not shown) [Cmpd 56, 2-(4-(2-(4-(7-(6-cyano-5-(trifluoromethyl)pyridin-3-yl)-8-oxo-6-thioxo-5,7-diazaspiro[3.4]octan-5-yl)-2-ethylphenoxy)ethyl)piperidin-1-yl)-N-(5-(2,6-dioxopiperidin-3-ylamino)-2-fluorophenyl)acetamide]: the “Y (lowest measured AR level normalized to DMSO control)” value was “* (0<Y<=25%)”. The half-maximal degradation concentration (DC50) (read-out: DC50) fell in the range of 100 to 500 nM.

Regarding `CCc1cc(N2C(=S)N(c3ccc(C#N)c(C(F)(F)F)c3)C(=O)C23CCC3)ccc1OCCC1CCN(CC(=O)Nc2cc(NC3CCC(=O)NC3=O)ccc2F)CC1` (stereo not shown) [Cmpd 57, 2-(4-(2-(4-(7-(4-cyano-3-(trifluoromethyl)phenyl)-8-oxo-6-thioxo-5,7-diazaspiro[3.4]octan-5-yl)-2-ethylphenoxy)ethyl)piperidin-1-yl)-N-(5-(2,6-dioxopiperidin-3-ylamino)-2-fluorophenyl)acetamide], the “Y (lowest measured AR level normalized to DMSO control)” value was “* (0<Y<=25%)”. Further, the half-maximal degradation concentration (DC50) (read-out: DC50) was in the range of 100 to 500 nM.

In the case of `CC1(C)C(=O)N(c2cnc(C#N)c(C(F)(F)F)c2)C(=S)N1c1ccc(OCCC2CCN(CC(=O)Nc3cccc(NC4CCC(=O)NC4=O)c3)CC2)c(CCF)c1` (stereo not shown) [Cmpd 58, 2-(4-(2-(4-(3-(6-cyano-5-(trifluoromethyl)pyridin-3-yl)-5,5-dimethyl-4-pxo-2-thioxoimidazolidin-1-yl)-2-(2-fluoroethyl)phenoxy)ethyl)piperidin-1-yl)-N-(3-(2,6-dioxopiperidin-3-ylamino)phenyl)acetamide], the “Y (lowest measured AR level normalized to DMSO control)” value was “* (0<Y<=25%)”. Besides, the DC50 (read-out: DC50) is less than 100 nM.

For `CCc1cc(N2C(=S)N(c3ccc(C#N)c(C(F)(F)F)c3)C(=O)C23CCC3)ccc1OCCC1CCN([C@@H](C)C(=O)Nc2cccc(NC3CCC(=O)NC3=O)c2)CC1` (stereo partly drawn) [Cmpd 59, (2S)-2-(4-(2-(4-(7-(4-cyano-3-(trifluoromethyl)phenyl)-8-oxo-6-thioxo-5,7-diazaspiro[3.4]octan-5-yl)-2-ethylphenoxy)ethyl)piperidin-1-yl)-N-(3-(2,6-dioxopiperidin-3-ylamino)phenyl)propanamide], the “Y (lowest measured AR level normalized to DMSO control)” value is “** (25%<Y<=35%)”. In addition, the DC50 (read-out: DC50) fell in the range of 100 to 500 nM.

As to `CCc1cc(N2C(=S)N(c3ccc(C#N)c(C(F)(F)F)c3)C(=O)C23CCC3)ccc1OCCC1CCN([C@H](C)C(=O)Nc2cccc(NC3CCC(=O)NC3=O)c2)CC1` (stereo partly drawn) [Cmpd 60, (2R)-2-(4-(2-(4-(7-(4-cyano-3-(trifluoromethyl)phenyl)-8-oxo-6-thioxo-5,7-diazaspiro[3.4]octan-5-yl)-2-ethylphenoxy)ethyl)piperidin-1-yl)-N-(3-(2,6-dioxopiperidin-3-ylamino)phenyl)propanamide], the “Y (lowest measured AR level normalized to DMSO control)” value is “** (25%<Y<=35%)”. For the same molecule, the 50% degradation concentration (DC50) (read-out: DC50) lay within 100 to 500 nM.

On to `CCc1cc(N2C(=S)N(c3cnc(C#N)c(C(F)(F)F)c3)C(=O)C2(C)C)ccc1OCCC1(C)CCN(CC(=O)Nc2cccc(NC3CCC(=O)NC3=O)c2)CC1` (stereo not shown) [Cmpd 61, 2-(4-(2-(4-(3-(6-cyano-5-(trifluoromethyl)pyridin-3-yl)-5,5-dimethyl-4-oxo-2-thioxoimidazolidin-1-yl)-2-ethylphenoxy)ethyl)-4-methylpiperidin-1-yl)-N-(3-(2,6-dioxopiperidin-3-ylamino)phenyl)acetamide], for which the “Y (lowest measured AR level normalized to DMSO control)” value is on record as “* (0<Y<=25%)”. Moreover, the DC50 (read-out: DC50) is less than 100 nM.

As to `CCc1cc(N2C(=S)N(c3cnc(C#N)c(C(F)(F)F)c3)C(=O)C2(C)C)ccc1OCC[C@@H]1C[C@H]2CC[C@@H](C1)N2CC(=O)Nc1cc(Cl)cc(NC2CCC(=O)NC2=O)c1` (stereo partly drawn) [Cmpd 62, N-(3-chloro-5-(2,6-dioxopiperidin-3-ylamino)phenyl)-2-((1R,3s,5S)-3-(2-(4-(3-(6-cyano-5-(trifluoromethyl)pyridin-3-yl)-5,5-dimethyl-4-oxo-2-thioxoimidazolidin-1-yl)-2-ethylphenoxy)ethyl)-8-azabicyclo[3.2.1]octan-8-yl)acetamide], the “Y (lowest measured AR level normalized to DMSO control)” value is on record as “* (0<Y<=25%)” and the half-maximal degradation concentration (DC50) was less than 100 nM.

For the molecule `CCc1cc(N2C(=S)N(c3cnc(C#N)c(C(F)(F)F)c3)C(=O)C2(C)C)ccc1OCC[C@H]1C[C@H]2CC[C@@H](C1)N2CC(=O)Nc1cc(Cl)cc(NC2CCC(=O)NC2=O)c1` (stereo partly drawn) [Cmpd 63, N-(3-chloro-5-(2,6-dioxopiperidin-3-ylamino)phenyl)-2-((1R,3r,5S)-3-(2-(4-(3-(6-cyano-5-(trifluoromethyl)pyridin-3-yl)-5,5-dimethyl-4-oxo-2-thioxoimidazolidin-1-yl)-2-ethylphenoxy)ethyl)-8-azabicyclo[3.2.1]octan-8-yl)acetamide], the “Y (lowest measured AR level normalized to DMSO control)” value is on record as “** (25%<Y<=35%)” and the DC50 was less than 100 nM.

For the molecule `CCc1cc(N2C(=S)N(c3cnc(C#N)c(C(F)(F)F)c3)C(=O)C2(C)C)ccc1OCCC1(C)CCN(CC(=O)Nc2cc(Cl)cc(NC3CCC(=O)NC3=O)c2)CC1` (stereo not shown) [Cmpd 64, N-(3-chloro-5-(2,6-dioxopiperidin-3-ylamino)phenyl)-2-(4-(2-(4-(3-(6-cyano-5-(trifluoromethyl)pyridin-3-yl)-5,5-dimethyl-4-oxo-2-thioxoimidazolidin-1-yl)-2-ethylphenoxy)ethyl)-4-methylpiperidin-1-yl)acetamide], the “Y (lowest measured AR level normalized to DMSO control)” value was “* (0<Y<=25%)”. The DC50 (read-out: DC50) lay in the range of 100 to 500 nM.

As for `CCc1cc(N2C(=S)N(c3cnc(C#N)c(C(F)(F)F)c3)C(=O)C2(C)C)ccc1OCC[C@H]1C[C@H]2CC[C@@H](C1)N2CC(=O)Nc1cccc(NC2CCC(=O)NC2=O)c1` (stereo partly drawn) [Cmpd 65, 2-((1R,3r,5S)-3-(2-(4-(3-(6-cyano-5-(trifluoromethyl)pyridin-3-yl)-5,5-dimethyl-4-oxo-2-thioxoimidazolidin-1-yl)-2-ethylphenoxy)ethyl)-8-azabicyclo[3.2.1]octan-8-yl)-N-(3-(2,6-dioxopiperidin-3-ylamino)phenyl)acetamide], the “Y (lowest measured AR level normalized to DMSO control)” value is reported as “* (0<Y<=25%)” and the DC50 was less than 100 nM.
